Results: ChEMBL document CHEMBL4483862, “Open-source discovery of chemical leads for next-generation chemoprotective antimalarials” (2018)

Test system: Plasmodium berghei
Assay: Luciferase/luciferin-expressing antifolate-resistant parasites were used to infect a culture of HepG2 cells that were pre-incubated with compounds. Infected hepatocytes emit light due to the luciferase reaction. Assay results are presented as the percent inhibition of light emission compared to control. […]
Assay type: functional
Settings: sporozoite; for IC90: read-out: LUCIFERASE INFECTION ASSAY - IC90
[1] = read-out: LUCIFERASE INFECTION ASSAY - IC50

| SMILES | IC90 | further results |
| --- | --- | --- |
| Cc1nc(NCc2ccc3c(c2)OCO3)c2c3c(sc2n1)CCCC3 | > 10 µM | IC50 (PBLUC_HILL_SLOPE 12.4, PBLUC_R_SQUARED 0.761, read-out: LUCIFERASE INFECTION ASSAY - IC50): 8.99 µM |
| Cc1ccc(S(=O)(=O)NN(C)c2nc3ccccc3nc2C(F)(F)F)cc1 | 3.01 µM | IC50 (HEPG2TOX_HILL_SLOPE 2.57, HEPG2TOX_R_SQUARED 0.987, PBLUC_HILL_SLOPE 18.2, PBLUC_R_SQUARED 0.483, read-out: LUCIFERASE INFECTION ASSAY - IC50): 2.66 µM |
| CCn1c(O)c(C2NCCc3c2[nH]c2ccc(OC)cc32)c(=O)[nH]c1=O (centres undefined) | 4.71 µM | IC50 (HEPG2TOX_HILL_SLOPE 0.178, HEPG2TOX_R_SQUARED 0.706, PBLUC_HILL_SLOPE 1.13, PBLUC_R_SQUARED 0.918, read-out: LUCIFERASE INFECTION ASSAY - IC50): 0.675 µM |
| Cc1ccc(NN2C(=O)C=C(c3ccc(Cl)cc3)C2=O)cc1 | > 10.6 µM | IC50 [1]: > 10.6 µM |
| COc1ccc(-c2nc3c(c(SCCN4CCCC4)n2)COC(C)(C)C3)cc1 | > 8.26 µM | IC50 (PBLUC_HILL_SLOPE 2.26, PBLUC_R_SQUARED 0.135, read-out: LUCIFERASE INFECTION ASSAY - IC50): 5.35 µM |
| COc1ccc(CNC(=O)Cn2ncc(Cl)c(Cl)c2=O)cc1OC | > 10 µM | IC50 [1]: > 10 µM |
| CCc1ccc(-n2nnnc2C/C=N/Nc2ccc(F)cc2)cc1 | > 10.2 µM | IC50 [1]: > 10.2 µM |
| O=C(Nc1cc(C(F)(F)F)ccc1Cl)C(Sc1nnc(Cc2cccs2)n1CCc1ccccc1)c1ccccc1 (centres undefined) | > 10 µM | IC50 [1]: 5.35 µM |
| CCC1CCc2sc(C(=O)Nc3ccccc3O)cc2C1 (centres undefined) | > 10 µM | IC50 (PBLUC_HILL_SLOPE 24.2, PBLUC_R_SQUARED 0.273, read-out: LUCIFERASE INFECTION ASSAY - IC50): 9.71 µM |
| O=C(NNC(=O)c1cc2cc(Cl)ccc2[nH]1)c1ccc(S(=O)(=O)N2CCCC2)cc1 | 9.83 µM | IC50 (HEPG2TOX_HILL_SLOPE 3.29, HEPG2TOX_R_SQUARED 0.977, PBLUC_HILL_SLOPE 10.3, 16.0, PBLUC_R_SQUARED 0.127, 0.622, read-out: LUCIFERASE INFECTION ASSAY - IC50): 8.54 µM |
| CCn1c(=O)n(Cc2cc(Cl)c3c(c2)OCO3)c2ccccc21 | > 10 µM | IC50 [1]: > 10 µM |
| Cc1cc(C)n(-c2ccc(S(N)(=O)=O)cc2)n1 | > 13.1 µM | IC50 (FFLUC_HILL_SLOPE 0.55, FFLUC_R_SQUARED 0.0304, read-out: LUCIFERASE INFECTION ASSAY - IC50): > 13.1 µM |
| COCOc1ccc(-c2cc(-c3cccc4cccnc34)cnc2N)cc1 | > 9.23 µM | IC50 (HEPG2TOX_HILL_SLOPE 2.28, HEPG2TOX_R_SQUARED 0.55, PBLUC_HILL_SLOPE 1.41, PBLUC_R_SQUARED 0.714, read-out: LUCIFERASE INFECTION ASSAY - IC50): 3.26 µM |
| COc1cc(OC)cc(C2c3c(C)nn(-c4ccccc4)c3NC(=O)C2NC(=O)c2ccccc2)c1 (centres undefined) | > 10 µM | IC50 [1]: > 10 µM |
| COc1cc(/C=C(/C(=O)Nc2ccc(Cl)cc2)c2nc3ccccc3s2)ccc1OC(F)F | 3.33 µM | IC50 (FFLUC_HILL_SLOPE 4.93, FFLUC_R_SQUARED 0.384, HEPG2TOX_HILL_SLOPE 14.8, HEPG2TOX_R_SQUARED 0.909, PBLUC_HILL_SLOPE 5.39, PBLUC_R_SQUARED 0.576, read-out: LUCIFERASE INFECTION ASSAY - IC50): 2.21 µM |
| CC(C)(C)c1ccc(-c2cc(NC(=O)c3ccc(Cl)cc3Cl)[nH]n2)cc1 | 3.08 µM | IC50 (HEPG2TOX_HILL_SLOPE 2.82, HEPG2TOX_R_SQUARED 0.976, PBLUC_HILL_SLOPE 3.98, PBLUC_R_SQUARED 0.745, read-out: LUCIFERASE INFECTION ASSAY - IC50): 1.77 µM |
| CCc1ccc(-c2noc(CN3CCN(C(=O)c4ccccc4)CC3)n2)cc1 | > 10 µM | IC50 (HEPG2TOX_HILL_SLOPE 8.06, HEPG2TOX_R_SQUARED 0.791, read-out: LUCIFERASE INFECTION ASSAY - IC50): > 10 µM |
| O=C(NC1CCSc2ccc(Cl)cc21)c1cc(Br)c[nH]1 (centres undefined) | > 10 µM | IC50 (FFLUC_HILL_SLOPE 30.3, FFLUC_R_SQUARED 0.512, PBLUC_HILL_SLOPE 1.67, PBLUC_R_SQUARED 0.28, read-out: LUCIFERASE INFECTION ASSAY - IC50): 5.71 µM |
| CN1CCN(c2ccc(-c3cn4c(-c5ccc(F)c(Cl)c5)cnc4cn3)cn2)CC1 | > 7.8 µM | IC50 [1]: > 7.8 µM |

| SMILES | IC90 | further results |
| --- | --- | --- |
| CCOC(=O)c1c(S(=O)(=O)N2CCN(Cc3ccccc3)CC2)c(-c2ccccc2)n(-c2ccccc2)c1C | > 6.07 µM | IC50 (FFLUC_HILL_SLOPE 3.32, FFLUC_R_SQUARED 0.581, read-out: LUCIFERASE INFECTION ASSAY - IC50): > 6.07 µM |
| O=c1[nH]c2ccccc2c(O)c1F | 2.92 µM | IC50 (PBLUC_HILL_SLOPE 2.84, PBLUC_R_SQUARED 0.833, read-out: LUCIFERASE INFECTION ASSAY - IC50): 1.35 µM |
| CC(=O)Oc1ccccc1C(=O)NCc1ccc(C)cc1 | > 11.6 µM | IC50 [1]: > 11.6 µM |
| O=C1/C(=C/Nc2cccc(O)c2)c2ccccc2C(=O)N1Cc1ccccc1 | 9.61 µM | IC50 (PBLUC_HILL_SLOPE 10.5, PBLUC_R_SQUARED 0.272, read-out: LUCIFERASE INFECTION ASSAY - IC50): 7.8 µM |
| Cc1cccc(Cn2nc(C(C)(C)C)cc2C(=O)Nc2cccc(OC(F)(F)F)c2)c1 | > 7.65 µM | IC50 (PBLUC_HILL_SLOPE 1.23, PBLUC_R_SQUARED 0.161, read-out: LUCIFERASE INFECTION ASSAY - IC50): > 7.65 µM |
| OC(c1cc(C(F)(F)F)cc(C(F)(F)F)c1)c1cc(C(F)(F)F)cc(C(F)(F)F)c1 | > 7.23 µM | IC50 (HEPG2TOX_HILL_SLOPE 8.63, HEPG2TOX_R_SQUARED 0.166, read-out: LUCIFERASE INFECTION ASSAY - IC50): > 7.23 µM |
| O=C(OC1(C(F)(F)F)C(=O)Nc2c1ccc1ccccc21)c1cccs1 (centres undefined) | > 10 µM | IC50 (FFLUC_HILL_SLOPE 2.8, FFLUC_R_SQUARED 0.511, PBLUC_HILL_SLOPE 11.1, PBLUC_R_SQUARED 0.378, read-out: LUCIFERASE INFECTION ASSAY - IC50): 9.81 µM |
| COc1ccc(-c2n[nH]c(SC(C(=O)Nc3cc(Cl)cc(Cl)c3)c3ccccc3)nc2=O)cc1 (centres undefined) | 3.75 µM | IC50 (FFLUC_HILL_SLOPE 1.9, FFLUC_R_SQUARED 0.863, HEPG2TOX_HILL_SLOPE 8.67, HEPG2TOX_R_SQUARED 0.533, PBLUC_HILL_SLOPE 16.2, PBLUC_R_SQUARED 0.618, read-out: LUCIFERASE INFECTION ASSAY - IC50): 3.27 µM |
| O=c1nc(Nc2cccc(C(F)(F)F)c2)[nH]nc1Cc1ccccc1 | > 9.53 µM | IC50 [1]: 1.23 µM |
| Cc1ccc(Oc2cccc(F)c2C#N)cc1 | > 14.5 µM | IC50 [1]: > 14.5 µM |
| CN1CCN(c2ccc(CNc3ccc4ncc(-c5ccc(OC(F)(F)F)cc5)n4n3)cc2)CC1 | 6.12 µM | IC50 (HEPG2TOX_HILL_SLOPE 14.3, HEPG2TOX_R_SQUARED 0.469, PBLUC_HILL_SLOPE 4.14, PBLUC_R_SQUARED 0.775, read-out: LUCIFERASE INFECTION ASSAY - IC50): 3.6 µM |
| CC(Nc1ccc(Cc2nc3ccccc3s2)cc1)C(=O)N1CCNC1=O (centres undefined) | 9.74 µM | IC50 (PBLUC_HILL_SLOPE 6.15, PBLUC_R_SQUARED 0.163, read-out: LUCIFERASE INFECTION ASSAY - IC50): 6.81 µM |
| CC1SC(=Nc2ccc(S(=O)(=O)N3CCOCC3)cc2)NN=C1C12CC3CC(CC(C3)C1)C2 (centres undefined) | > 10 µM | IC50 [1]: > 10 µM |
| Nc1ccc(OC2=C(Cl)C(=O)c3ccccc3C2=O)cc1 | 5.91 µM | IC50 (HEPG2TOX_HILL_SLOPE 2.46, HEPG2TOX_R_SQUARED 0.976, PBLUC_HILL_SLOPE 10.6, PBLUC_R_SQUARED 0.396, read-out: LUCIFERASE INFECTION ASSAY - IC50): 4.8 µM |
| Cc1cc(C)c(Nc2nc(-c3c(-c4ccccc4)noc3C)cs2)c(C)c1 | 5.3 µM | IC50 (FFLUC_HILL_SLOPE 43.6, FFLUC_R_SQUARED 0.276, HEPG2TOX_HILL_SLOPE 3.1, HEPG2TOX_R_SQUARED 0.635, PBLUC_HILL_SLOPE 7.7, PBLUC_R_SQUARED 0.763, read-out: LUCIFERASE INFECTION ASSAY - IC50): 3.98 µM |
| CN1C/C(=C/c2csnn2)C(=O)/C(=C/c2csnn2)C1 | 4.3 µM | IC50 (HEPG2TOX_HILL_SLOPE 8.98, HEPG2TOX_R_SQUARED 0.932, PBLUC_HILL_SLOPE 14.4, PBLUC_R_SQUARED 0.582, read-out: LUCIFERASE INFECTION ASSAY - IC50): 3.69 µM |
| Cc1sc2ncnc(Sc3nnc(-c4cccs4)n3-c3ccccc3)c2c1C | 3.96 µM | IC50 (PBLUC_HILL_SLOPE 13.8, PBLUC_R_SQUARED 0.706, read-out: LUCIFERASE INFECTION ASSAY - IC50): 3.37 µM |
| CC1=C2CCCC2CC/C1=N\NC(N)=O (centres undefined) | > 15.9 µM | IC50 (HEPG2TOX_HILL_SLOPE 20.4, HEPG2TOX_R_SQUARED 0.643, PBLUC_HILL_SLOPE 11.7, PBLUC_R_SQUARED 0.0908, read-out: LUCIFERASE INFECTION ASSAY - IC50): 14.9 µM |
